Some results are limits rather than exact numbers.

In data set [1] the test system is Rattus norvegicus. Put plainly: Dose normalized AUC in po dosed rat. The data set is classed as ADME, organism-based. The settings on record: in vivo.
Data set [2] concerns the target T1, Tolloid-like protein 1 (Homo sapiens, UniProt O43897).
T1 sequence (O43897 whole entry): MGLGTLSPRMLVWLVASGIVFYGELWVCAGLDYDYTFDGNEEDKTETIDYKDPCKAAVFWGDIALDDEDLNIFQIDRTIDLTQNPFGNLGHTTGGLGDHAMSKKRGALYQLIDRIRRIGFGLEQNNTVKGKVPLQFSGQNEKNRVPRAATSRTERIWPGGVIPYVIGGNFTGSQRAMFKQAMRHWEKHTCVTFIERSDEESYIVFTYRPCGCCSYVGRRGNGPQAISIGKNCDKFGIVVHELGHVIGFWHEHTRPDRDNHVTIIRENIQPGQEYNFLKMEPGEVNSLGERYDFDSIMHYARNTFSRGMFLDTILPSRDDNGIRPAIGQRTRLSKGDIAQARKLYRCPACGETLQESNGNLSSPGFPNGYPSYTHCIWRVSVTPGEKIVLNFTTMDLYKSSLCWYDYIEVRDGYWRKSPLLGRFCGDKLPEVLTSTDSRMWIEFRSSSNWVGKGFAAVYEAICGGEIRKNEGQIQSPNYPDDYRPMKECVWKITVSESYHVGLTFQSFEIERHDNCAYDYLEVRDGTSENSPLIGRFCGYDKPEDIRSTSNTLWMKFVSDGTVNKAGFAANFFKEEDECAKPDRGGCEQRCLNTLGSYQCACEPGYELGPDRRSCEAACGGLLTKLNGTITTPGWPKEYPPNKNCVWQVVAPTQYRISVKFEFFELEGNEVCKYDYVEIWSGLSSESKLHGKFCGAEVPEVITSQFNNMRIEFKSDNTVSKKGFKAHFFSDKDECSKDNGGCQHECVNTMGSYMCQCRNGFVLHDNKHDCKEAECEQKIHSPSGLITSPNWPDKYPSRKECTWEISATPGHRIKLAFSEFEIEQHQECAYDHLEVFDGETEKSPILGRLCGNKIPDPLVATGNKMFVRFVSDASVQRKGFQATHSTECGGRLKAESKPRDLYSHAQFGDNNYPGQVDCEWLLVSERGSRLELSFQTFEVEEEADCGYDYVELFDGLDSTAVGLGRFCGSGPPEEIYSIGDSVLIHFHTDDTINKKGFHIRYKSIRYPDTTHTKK
Put plainly: Inhibition of recombinant human full length TLL1 using ((5-FAM)-ELIDQYDVQRDDSSDGSLED-K(5,6 TAMRA)-CONH2) as substrate preincubated for 10 mins followed by substrate addition measured after 60 mins.

The target in data set [3] is T2, Tolloid-like protein 2 (Homo sapiens, UniProt Q9Y6L7).
T2 sequence (Q9Y6L7 whole entry): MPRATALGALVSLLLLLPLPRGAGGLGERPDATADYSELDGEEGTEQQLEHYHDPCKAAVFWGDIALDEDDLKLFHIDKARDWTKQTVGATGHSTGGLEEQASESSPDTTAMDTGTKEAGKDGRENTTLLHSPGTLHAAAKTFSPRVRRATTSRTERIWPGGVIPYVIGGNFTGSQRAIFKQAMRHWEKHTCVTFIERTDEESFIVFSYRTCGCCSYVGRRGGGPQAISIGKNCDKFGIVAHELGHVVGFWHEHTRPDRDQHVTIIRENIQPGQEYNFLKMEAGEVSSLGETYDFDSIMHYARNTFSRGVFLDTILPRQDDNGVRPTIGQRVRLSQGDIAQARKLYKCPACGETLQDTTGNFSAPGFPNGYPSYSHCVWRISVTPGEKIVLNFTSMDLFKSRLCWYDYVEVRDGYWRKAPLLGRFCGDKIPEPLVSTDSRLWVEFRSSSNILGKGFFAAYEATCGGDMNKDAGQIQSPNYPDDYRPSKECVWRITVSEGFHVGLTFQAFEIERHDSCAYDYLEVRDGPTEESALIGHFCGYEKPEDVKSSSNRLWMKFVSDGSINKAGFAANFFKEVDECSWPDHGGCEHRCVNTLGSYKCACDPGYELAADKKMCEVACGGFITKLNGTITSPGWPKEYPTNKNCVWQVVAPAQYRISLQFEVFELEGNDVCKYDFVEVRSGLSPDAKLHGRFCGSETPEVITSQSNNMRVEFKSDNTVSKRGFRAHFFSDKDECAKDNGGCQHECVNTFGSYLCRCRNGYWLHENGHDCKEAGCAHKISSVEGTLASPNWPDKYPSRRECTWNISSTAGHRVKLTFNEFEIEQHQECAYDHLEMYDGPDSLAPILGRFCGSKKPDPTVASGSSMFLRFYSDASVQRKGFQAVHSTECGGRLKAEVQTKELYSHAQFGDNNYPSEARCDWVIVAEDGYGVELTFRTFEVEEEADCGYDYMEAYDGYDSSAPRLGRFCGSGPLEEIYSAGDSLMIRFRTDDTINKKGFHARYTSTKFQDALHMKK
Kind of data set: Inhibition of recombinant human N-terminal 6His-tagged TLL2 (26 to 1015 residues) expressed in CHO cells using ((5-FAM)-ELIDQYDVQRDDSSDGSLED-K(5,6 TAMRA)-CONH2) as substrate preincubated for 10 mins followed by substrate addition measured after 60 mins.

Data set [4] is filed under the species Homo sapiens. Put plainly: Selectivity ratio of IC50 for human ACE1 to IC50 for recombinant human N-terminal 6His/flag-tagged BMP1 (121 to 721 residues) expressed in CHO cells. Format: cell-based.
For data set [5], the species on record is Homo sapiens. Kind of data set: Selectivity ratio of IC50 for ACE2 (unknown origin) to IC50 for recombinant human N-terminal 6His/flag-tagged BMP1 (121 to 721 residues) expressed in CHO cells. Format: cell-based.
The species named for data set [6] is Homo sapiens. Put plainly: Selectivity ratio of IC50 for recombinant human C-terminal MMP7 (78 to 250 residues) catalytic domain expressed in Escherichia coli to IC50 for recombinant human N-terminal 6His/flag-tagged BMP1 (121 to 721 residues) expressed in CHO cells.
Data set [7] is filed under the species Homo sapiens. Kind of data set: Selectivity ratio of IC50 for recombinant human C-terminal MMP9 (88 to 438 residues) catalytic domain expressed in Escherichia coli to IC50 for recombinant human N-terminal 6His/flag-tagged BMP1 (121 to 721 residues) expressed in CHO cells.
For data set [8], the species on record is Homo sapiens. Put plainly: Selectivity ratio of IC50 for MMP10 (unknown origin) to IC50 for recombinant human N-terminal 6His/flag-tagged BMP1 (121 to 721 residues) expressed in CHO cells. The data set is classed as cell-based.
For data set [9], the species on record is Homo sapiens. Put plainly: Selectivity ratio of IC50 for recombinant human C-terminal MMP12 (84 to 255 residues) catalytic domain expressed in Escherichia coli to IC50 for recombinant human N-terminal 6His/flag-tagged BMP1 (121 to 721 residues) expressed in CHO cells.
The species named for data set [10] is Homo sapiens. Kind of data set: Selectivity ratio of IC50 for recombinant human C-terminal MMP14 (Tyr92 to Arg278 residues) catalytic domain expressed in Escherichia coli to IC50 for recombinant human N-terminal 6His/flag-tagged BMP1 (121 to 721 residues) expressed in CHO cells.
In data set [11] the target is Cytochrome P450 3A4 (Homo sapiens, UniProt P08684). Kind of data set: Time dependent inhibition of CYP3A4 (unknown origin) at 33 uM measured over 15 mins relative to control. Format: ADME. The settings on record: 0.25 h.
Cytochrome P450 3A4, sequence (P08684 whole entry): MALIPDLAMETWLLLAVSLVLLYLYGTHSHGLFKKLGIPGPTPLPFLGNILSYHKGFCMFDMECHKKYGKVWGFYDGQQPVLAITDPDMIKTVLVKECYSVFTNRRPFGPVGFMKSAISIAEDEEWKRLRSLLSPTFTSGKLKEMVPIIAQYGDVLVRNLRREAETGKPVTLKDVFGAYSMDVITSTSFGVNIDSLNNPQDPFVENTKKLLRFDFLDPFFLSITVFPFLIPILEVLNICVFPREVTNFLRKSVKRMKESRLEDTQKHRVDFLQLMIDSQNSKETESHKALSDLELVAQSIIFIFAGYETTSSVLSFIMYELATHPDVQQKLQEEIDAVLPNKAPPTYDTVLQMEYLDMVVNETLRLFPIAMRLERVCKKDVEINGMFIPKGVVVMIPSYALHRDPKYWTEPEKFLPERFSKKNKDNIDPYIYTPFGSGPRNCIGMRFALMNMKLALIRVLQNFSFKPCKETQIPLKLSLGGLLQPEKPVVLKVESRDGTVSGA

As usually defined, the IC50 is the point on the concentration scale where inhibition reaches its midpoint. In data set [1], `CCCCC[C@@H](C(=O)NCNC(=O)c1ccc(-c2ccccc2)o1)[C@@H](CC)N(O)C=O` registered an AUC/dose of 1.6 kg·h/L. Besides, the IC50 in data set [2] is 100 nM; in [3], 160 nM. The Ratio IC50 in data set [4], in [5], in data set [6], in [7], in data set [8] and in [9] was > 30 in each case. Moreover, the Ratio IC50 in data set [10] was > 30. In data set [11], the “fold change (FC)” value stood at 4.3.

Values taken from ChEMBL document CHEMBL4196124, “Reverse Hydroxamate Inhibitors of Bone Morphogenetic Protein 1” (ACS Med Chem Lett, 2018).
